From ChEMBL document CHEMBL4831503, “Design, synthesis, in vitro and in vivo anti-respiratory syncytial virus (RSV) activity of novel oxizine fused benzimidazole derivatives” (Eur J Med Chem, 2021)
Calls of active or inactive are those of the source. The rule behind the calls is not given here.

Key:
[1] = tested on: Respiratory syncytial virus; test: Antiviral activity against Respiratory syncytial virus infected in human HEp-2 cells incubated for 60 hrs by MTT assay; format: functional, organism-based; details: HEp-2, 60 h
[2] = Cytotoxicity against human HEp-2 cells assessed as reduction in cell viability measured after 60 hrs by MTT assay; format: cell-based
[3] = Selectivity index, ratio of CC50 for human HEp-2 cells to EC50 for Respiratory syncytial virus infected in human HEp-2 cells; format: toxicity, cell-based; details: read-out: Selectivity Index
[4] = tested on: Respiratory syncytial virus; test: Antiviral activity against RSV infected in BALB/c mouse assessed as downregulation of IL-10 expression in lung tissue infected with RSV at 50 mg/kg/day measured after 2 to 6 days post infection by RT-PCR analysis; format: functional, organism-based; details: time 2-6 day
[5] = tested on: Respiratory syncytial virus; test: Inhibition of RSV induced apoptosis in human HEp-2 cells assessed as reduction in PARP cleavage measured after 48 hrs by Western blot analysis; format: functional, organism-based
[6] = tested on: Respiratory syncytial virus; test: Antiviral activity against RSV infected in human HEp-2 cells assessed as downregulation of RIG-1 expression at 25 uM treated 48 hpi and measured after 48 hrs by Western blot analysis; format: functional, organism-based
[7] = tested on: Respiratory syncytial virus; test: Antiviral activity against RSV infected in BALB/c mouse assessed as downregulation of IRF3 expression in lung tissue infected with RSV at 50 mg/kg/day measured after 2 to 4 days post infection by RT-PCR analysis; format: functional, organism-based; details: time 2-4 day
[8] = tested on: Respiratory syncytial virus; test: Inhibition of RSV induced apoptosis in human HEp-2 cells assessed as reduction in cleaved caspase-7 expression measured after 48 hrs by Western blot analysis; format: functional, organism-based
[9] = tested on: Respiratory syncytial virus; test: Antiviral activity against RSV infected in human HEp-2 cells assessed as downregulation of NF-kappaB expression at 25 uM treated 48 hpi and measured after 48 hrs by Western blot analysis; format: functional, organism-based
[10] = Toxicity in BALB/c mouse infected with RSV-Long assessed as body weight loss at 50 mg/kg/day administered via gastric gavage once daily for 6 days; format: organism-based; details: in vivo, po, 144 h, time 6 day
[11] = tested on: Respiratory syncytial virus; test: Antiviral activity against RSV infected in BALB/c mouse assessed as downregulation of IL-6 expression in lung tissue infected with RSV at 50 mg/kg/day measured after 2 days post infection by RT-PCR analysis; format: functional, organism-based; details: time 2.0 day
[12] = tested on: Respiratory syncytial virus; test: Antiviral activity against RSV infected in BALB/c mouse assessed as downregulation of RIG-1 expression in lung tissue infected with RSV at 50 mg/kg/day measured after 2 days post infection by RT-PCR analysis; format: functional, organism-based; details: time 2.0 day
[13] = tested on: Respiratory syncytial virus; test: Antiviral activity against RSV Long infected in BALB/c mouse assessed as improvement in lung congestion at 25 to 100 mg/kg/day observed on day 6 after infection by H and E staining based microscopic analysis; format: functional, organism-based; details: dose 25-100 mg/kg/day, time 6.0 day
[14] = tested on: Respiratory syncytial virus; test: Antiviral activity against RSV infected in BALB/c mouse assessed as inhibition of viral replication by measuring RSV-M gene expression in lung after 2 to 6 days post infection by RT-PCR analysis; format: functional, organism-based; details: time 2-6 day
[15] = tested on: Respiratory syncytial virus; test: Antiviral activity against RSV infected in BALB/c mouse assessed as downregulation of IL-8 expression in lung tissue infected with RSV at 50 mg/kg/day measured after 2 to 6 days post infection by RT-PCR analysis; format: functional, organism-based; details: time 2-6 day
[16] = tested on: Respiratory syncytial virus; test: Antiviral activity against RSV infected in BALB/c mouse assessed as downregulation of iNOS expression in lung tissue infected with RSV at 50 mg/kg/day measured after 2 to 6 days post infection by RT-PCR analysis; format: functional, organism-based; details: time 2-6 day
[17] = Inhibition of RSV induced ROS production in human HEp-2 cells assessed as reduction in accumulation of ROS-positive cells at 25 uM measured after 36 hrs by DCHF-DA staining based flow cytometry analysis (reference value: 82.2%); format: functional, Respiratory syncytial virus; design: scale not given: the % may be the effect or the level left
[18] = tested on: Respiratory syncytial virus; test: Antiviral activity against RSV Long infected in BALB/c mouse assessed as reduction in lung tissue damage by measuring lung index at 50 mg/kg/day measured after 4 to 6 days of virus infection; format: functional, organism-based; details: time 4-6 day
[19] = tested on: Respiratory syncytial virus; test: Inhibition of RSV induced apoptosis in human HEp-2 cells assessed as reduction in cleaved caspase-3 expression measured after 60 hrs by Western blot analysis; format: functional, organism-based
[20] = tested on: Respiratory syncytial virus; test: Antiviral activity against RSV infected in BALB/c mouse assessed as downregulation of TLR3 expression in lung tissue infected with RSV at 50 mg/kg/day measured after 2 to 6 days post infection by RT-PCR analysis; format: functional, organism-based; details: time 2-6 day
[21] = tested on: Respiratory syncytial virus; test: Inhibition of RSV induced apoptosis in human HEp-2 cells assessed as early apoptotic cells at 25 uM measured after 60 hrs by Annexin V-FITC/PI staining based flow cytometry analysis (reference value: 10.3%); format: functional; design: scale not given: the % may be the effect or the level left
[22] = tested on: Respiratory syncytial virus; test: Antiviral activity against RSV Long infected in BALB/c mouse assessed as inhibition of alveolar infiltrates accumulation at 50 mg/kg/day observed on day 6 after infection by H and E staining based microscopic analysis; format: functional, organism-based; details: time 6.0 day
[23] = tested on: Respiratory syncytial virus; test: Inhibition of RSV induced apoptosis in human HEp-2 cells assessed as reduction in cleaved caspase-9 expression measured after 48 hrs by Western blot analysis; format: functional, organism-based
[24] = tested on: Respiratory syncytial virus; test: Inhibition of RSV induced apoptosis in human HEp-2 cells assessed as late apoptotic cells at 25 uM measured after 60 hrs by Annexin V-FITC/PI staining based flow cytometry analysis (reference value: 20.2%); format: functional; design: scale not given: the % may be the effect or the level left
[25] = tested on: Respiratory syncytial virus; test: Antiviral activity against RSV infected in BALB/c mouse assessed as downregulation of TNF-alpha expression in lung tissue infected with RSV at 50 mg/kg/day measured after 2 to 6 days post infection by RT-PCR analysis; format: functional, organism-based; details: time 2-6 day

## O[C@@H]1CO[C@H]2[C@@H]1OCc1nc3cc(F)c(F)cc3n12
[1]
  EC50: > 400 µM
[2]
  CC50 at 60 h: 512 µM

## CS(=O)(=O)O[C@@H]1CO[C@H]2[C@@H]1OCc1nc3cc(Br)c(Br)cc3n12
[3]
  selectivity ratio: 1.13
[1]
  EC50: 87.9 µM
[2]
  CC50 at 60 h: 99.5 µM

## Cc1ccc(S(=O)(=O)O[C@@H]2CO[C@H]3[C@@H]2OCc2nc4cc(Br)c(C)c(Br)c4n23)cc1
[3]
  selectivity ratio: 10.7
[1]
  EC50: 8.28 µM
[2]
  CC50 at 60 h: 88.6 µM

## COc1ccc2c(nc3n2[C@H]2OC[C@@H](O)[C@H]2OC3)c1[N+](=O)[O-]
[2]
  CC50 at 60 h: 468 µM

## O[C@@H]1CO[C@H]2[C@@H]1OCc1nc3cc(Br)c(Br)cc3n12
[3]
  selectivity ratio: 5.67
[1]
  EC50: 31.9 µM
[2]
  CC50 at 60 h: 181 µM

## Cc1c(Br)cc2c(nc3n2[C@H]2OC[C@H](N=[N+]=[N-])[C@H]2OC3)c1Br
[3]
  selectivity ratio: 2.54
[1]
  EC50: 13 µM
[2]
  CC50 at 60 h: 33.1 µM

## Cc1ccc(S(=O)(=O)O[C@@H]2CO[C@H]3[C@@H]2OCc2nc4cc(Br)c(Br)cc4n23)cc1
[3]
  selectivity ratio: 1.35
[1]
  EC50: 64.7 µM
[2]
  CC50 at 60 h: 87.5 µM

## Cc1c(Br)cc2nc3n(c2c1Br)[C@H]1OC[C@H](N=[N+]=[N-])[C@H]1OC3
[2]
  CC50 at 60 h: 21.4 µM

## OC[C@@H](O)[C@@H]1Cn2c(nc3ccccc32)CO1
[2]
  CC50 at 60 h: > 800 µM

## COc1ccc2c(c1)nc1n2[C@H]2OC[C@@H](O)[C@H]2OC1
[2]
  CC50 at 60 h: > 800 µM

## O[C@@H]1CO[C@H]2[C@@H]1OCc1nc3cc(Br)cc(Cl)c3n12
[1]
  EC50: 86.2 µM
[2]
  CC50 at 60 h: > 800 µM

## Cc1c(Br)cc2nc3n(c2c1Br)[C@H]1OC[C@@H](OCc2ccccc2)[C@H]1OC3
[3]
  selectivity ratio: 2.59
[4]
  Activity: Active
[1]
  EC50: 44.5 µM
[2]
  CC50 at 60 h: 115 µM

## Cc1ccc(S(=O)(=O)O[C@@H]2CO[C@H]3[C@@H]2OCc2nc4c(Br)c(C)c(Br)cc4n23)cc1
[3]
  selectivity ratio: 5.68
[1]
  EC50: 1.57 µM
[2]
  CC50 at 60 h: 8.94 µM

## O[C@@H]1CO[C@H]2[C@@H]1OCc1nc3cc(Cl)c(Cl)cc3n12
[2]
  CC50 at 60 h: 238 µM

## COc1c(Br)cc2c(nc3n2[C@H]2OC[C@@H](O)[C@H]2OC3)c1Br
[2]
  CC50 at 60 h: 259 µM

## Cc1c(Br)cc2c(nc3n2[C@H]2OC[C@@H](OCc4ccccc4)[C@H]2OC3)c1Br
[2]
  CC50 at 60 h: 25.6 µM

## NC(=O)c1ncn([C@@H]2O[C@H](CO)[C@@H](O)[C@H]2O)n1 [RIBAVIRIN]
[5]
  inhibition: Active
[6]
  Activity: Active
[7]
  Activity: Active
[8]
  inhibition: Active
[9]
  Activity: Active
[10]
  Activity: Toxic
[11]
  Activity: Active
[12]
  Activity: inactive
[13]
  Activity: Active
[14]
  Activity: Active
[15]
  Activity: Active
[16]
  Activity: Active
[17]
  Activity: 62.7%
[3]
  selectivity ratio: 22.6
[18]
  Activity: Active
[19]
  inhibition: Active
[20]
  Activity: Active
[21]
  Activity: 0.3%
[22]
  Activity: Active
[4]
  Activity: Active
[23]
  inhibition: Active
[24]
  Activity: 7.6%
[25]
  Activity: Active
[1]
  EC50: 18.5 µM
[2]
  CC50 at 60 h: 418 µM

## COc1ccc2c(nc3n2[C@H]2OC[C@@H](O)[C@H]2OC3)c1N
[3]
  selectivity ratio: 9.66
[1]
  EC50: 11.3 µM
[2]
  CC50 at 60 h: 109 µM

## Cc1cc2nc3n(c2cc1C)[C@H]1OC[C@@H](O)[C@H]1OC3
[2]
  CC50 at 60 h: 492 µM

## [N-]=[N+]=N[C@H]1CO[C@H]2[C@@H]1OCc1nc3cc(Br)c(Br)cc3n12
[2]
  CC50 at 60 h: 77.4 µM

## OC[C@@H](O)[C@@H]1Cn2c(nc3cc(F)c(F)cc32)CO1
[3]
  selectivity ratio: 10
[1]
  EC50: 65.2 µM
[2]
  CC50 at 60 h: 653 µM

## Cc1c(Br)cc2c(nc3n2[C@H]2OC[C@@H](O)[C@H]2OC3)c1Br
[2]
  CC50 at 60 h: 34.3 µM

## Cc1cc2nc3n(c2cc1C)C[C@@H]([C@H](O)CO)OC3
[2]
  CC50 at 60 h: 574 µM

## COc1c(Cl)cc2c(nc3n2[C@H]2OC[C@@H](O)[C@H]2OC3)c1Cl
[2]
  CC50 at 60 h: 411 µM

## Cc1c(Br)cc2c(nc3n2[C@H]2OC[C@@H](OS(C)(=O)=O)[C@H]2OC3)c1Br
[2]
  CC50 at 60 h: 15.6 µM

## COc1ccc2c(c1)nc1n2C[C@@H]([C@H](O)CO)OC1
[2]
  CC50 at 60 h: 366 µM

## Cc1c(Br)cc2nc3n(c2c1Br)[C@H]1OC[C@@H](OS(C)(=O)=O)[C@H]1OC3
[3]
  selectivity ratio: 3.96
[1]
  EC50: 5.98 µM
[2]
  CC50 at 60 h: 23.7 µM

## O[C@@H]1CO[C@H]2[C@@H]1OCc1nc3ccccc3n12
[2]
  CC50 at 60 h: 564 µM
